Format in all cases: cell-based, human
Test [1] concerns S1-M1 cells. Put plainly: MTS cytotoxicity test with S1-M1 cells (MXR). The note with it: for Ratio: IC50 on S1-M1 cells/IC50 on S1 cells; for IC50: S1-M1 cells, mean of 2 experiments. An excerpt:
(§1) Human cancer cell lines, unless otherwise noted, are obtained from the American Type Culture Collection (Rockville, Md.). The following drug-sensitive parental cell lines, and their derived drug-resistant counterparts, are obtained from the originators as listed: (a) S1 (parental line from a subclone of human colon carcinoma line LS174T) and derived S1-M1-3.2 (herein called S1-M1) which expresses the MXR drug transporter protein, are provided by Dr. L. Greenberger, Wyeth Research (Rabindran, S. K., He, H., Singh, M., Brown, E., Collins, K. I., Annable, T., and Greenberger, L. M. Reversal of a novel multidrug resistance mechanism in human colon carcinoma cells by fumitremorgin C. Cancer Res., 58: 5850-5858, 1998); (b) parental HL-60 human promyelocytic leukemia line and derived HL-60/ADR, which expresses the MRP1 drug transporter protein, are provided by Dr. M. Center, University of Kansas (McGrath, T., and Center, M. S. Adriamycin resistance in HL60 cells in the absence of detectable P-glycoprotein. Biochem. Biophys. […] J. Biol. Chem., 261: 7762-7770, 1986) via Dr. L. Greenberger, Wyeth Research.
(§2) The assay, which is sold in kit form by Promega (Madison, Wis.; CellTiter 96 AQueous Non-Radioactive Cell Proliferation Assay), is based on the conversion by viable cells, but not by dead cells, of the tetrazolium salt, MTS (3-(4,5-dimethylthiazol-2-yl)-5-(3-carboxymethoxyphenyl)-2-(4-sulphophenyl)-2H-tetrazolium, inner salt), into a water-soluble colored formazan which is detected by spectrophotometry. Compounds are tested at nine concentrations, in order to determine IC50 values. For the test procedure, cells are harvested by trypsinization, washed, counted and distributed to wells of 96-well flat-bottom microtiter plates at 1000 cells per well in 200 μL of medium. In addition, one row of wells on a separate plate receives cells as above (“time 0” plate). All plates are incubated at 37° in humidified 5% CO2 in air for about 24 hr.
(§3) On day 2, compounds for test are diluted and added to wells. Compounds are dissolved in DMSO at 10 mg/mL. For each compound, nine serial 2-fold dilutions are prepared in DMSO. Ten μL of each dilution in DMSO are transferred to 100 μL of medium, mixed well, and then 5 μL of this dilution are transferred in quadruplicate to wells containing cells. […] Plates are returned to the incubator for three days. At the time of drug addition to the experimental plates, the MTS assay is run on the “time 0” plate. This produces the “time 0 MTS value” which is related to the number of viable cells per well at the time of drug addition.
(§4) After three days of culture with test compounds (day 5 overall), the MTS assay is done on all wells of the experimental plates. The absorbance values of the quadruplicate sample wells are averaged and divided by the average of the “time 0” values. […] The nine values for each compound are plotted against concentration, and the concentration that produces a relative color yield half way between the maximum and minimum is taken as the IC50 value.
S1-M1 cells overexpress the MXR transporter which mediates resistance to some chemotherapeutics (Gottesman, M. M., Fojo, T., and Bates, S. E. Miltidrug resistance in cancer: role of ATP-dependent transporters. Nature Rev. Cancer, 2: 48-58, 2002). The IC50 values of representative examples of this invention, as well as reference compounds, on S1-M1 are compared to values on the sensitive parental S1 line.
A general note: Tetrazolium assays rely on reduction of a dye to a coloured formazan, in cell work by metabolically active cells.

Test [2] concerns KB-8-5 cells. Description: MTS cytotoxicity test with KB-8-5 cells (moderate P-glycoprotein). To be noted: for Ratio 8.5/KB: IC50 on KB 8.5 cells/IC50 on KB cells; for IC50: KB 8.5 cells, mean of 2 experiments.
Source text: as §1, §2, §3, §4

Test [3] has as its system COLO 205 cells. Description: MTS cytotoxicity test with COLO 205 cells. To be noted: three days with compound. The essentials: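 COLO 205 human colon carcinoma cells, 1000/well, exposed for three days at 37 °C to nine 2-fold dilutions, top final concentration typically 5 μM. MTS formazan absorbance normalised to a time-0 plate; IC50 taken as concentration halfway between untreated maximum and high-drug minimum.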

Test [4] deals with HL-60 cells. Description: MTS cytotoxicity test with HL-60 cells. The note with it: mean of 2 experiments.
Source text: as §1, §2, §3, §4
HL-60/ADR cells overexpress the multidrug resistance protein MRP1 which mediates resistance to some chemotherapeutics (Gottesman, M. M., Fojo, T., and Bates, S. E. Multidrug resistance in cancer: role of ATP-dependent transporters. Nature Rev. Cancer, 2: 48-58, 2002). The IC50 values of representative examples of this invention, as well as reference compounds, on HL-60/ADR are compared to values on the sensitive parental HL-60 line.

Test [5] relates to KB-V1 cells. Put plainly: MTS cytotoxicity test with KB-V1 cells (very high P-glycoprotein). The note with it: for Ratio VI/KB: IC50 on KB VI cells/IC50 on KB cells; for IC50: KB VI cells, mean of 2 experiments.
Source text: as §1, §2, §3, §4

SMILES strings stand for the structures.

For `CNCCCOc1cc(F)c(-c2c(Cl)nc(-c3cnccn3)nc2N[C@@H](C)C(F)(F)F)c(F)c1.Cl` [Example 24a, 6-Chloro-5-{2,6-difluoro-4-[3-(methylamino)propoxy]phenyl}-2-pyrazin-2-yl-N-[(1S)-2,2,2-trifluoro-1-methylethyl]pyrimidin-4-amine hygrogen chloride], the Ratio in test [1] is 2.7. The IC50 (as a rule, the concentration that gives 50% inhibition) came to 53 nM in test [1]; 24 nM in test [2]; 8.9 nM in test [3]; 6.6 nM in test [4]; 405 nM in test [5]. The “Ratio 8.5/KB” value in test [2] is on record as 3.5. Further, the “Ratio VI/KB” value in test [5] was determined as 58.

`CNCCCOc1cc(F)c(-c2c(Cl)nc(-c3ccccn3)nc2N[C@@H](C)C(F)(F)F)c(F)c1.Cl` [Example 29a, 6-Chloro-5-{2,6-difluoro-4-[3-(methylamino)propoxy]phenyl}-2-pyridin-2-yl-N-[(S)-2,2,2-trifluoro-1-methylethyl]pyrimidin-4-amine hydrogen chloride]: the IC50 in test [1] (Homo sapiens) came to 21 nM; in test [2] (Homo sapiens), 21 nM; in test [3] (Homo sapiens, 72 h), 5.2 nM; in test [4] (Homo sapiens) it was 6.9 nM; in test [5] (Homo sapiens, KB-V1), 423 nM. Besides, in test [1], the Ratio came to 2.7. Moreover, the “Ratio 8.5/KB” value in test [2] was determined as 3.4. Also, in test [5], the “Ratio VI/KB” value turned out to be 69.

As to `CNCCCOc1cc(F)c(-c2c(Cl)nc(-n3cccn3)nc2N[C@@H](C)C(F)(F)F)c(F)c1.Cl` [Example 32a, 6-Chloro-5-{2,6-difluoro-4-[3-(methylamino)propoxy]phenyl}-2-(1H-pyrazol-1-yl)-N-[(1S)-2,2,2-trifluoro-1-methylethyl)pyrimidin-4-amine Hydrogen Chloride], the IC50 in test [1] (Homo sapiens) worked out at 8.7 nM; in test [2] (Homo sapiens) it was 32 nM; in test [3] (Homo sapiens, 72 h) it was 2.4 nM; in test [4] (Homo sapiens), 2.6 nM; in test [5] (Homo sapiens, KB-V1), 569 nM. In test [1], the Ratio worked out at 0.9. Moreover, in test [2], the “Ratio 8.5/KB” value is listed as 14. Besides, the “Ratio VI/KB” value in test [5] was determined as 242.

For the molecule `CC(=O)O[C@H]1C(=O)[C@@]2(C)[C@H]([C@H](OC(=O)c3ccccc3)[C@]3(O)C[C@H](OC(=O)[C@H](O)[C@@H](NC(=O)c4ccccc4)c4ccccc4)C(C)=C1C3(C)C)[C@]1(OC(C)=O)CO[C@@H]1C[C@@H]2O` [Paclitaxel, reference compound], the IC50 in test [1] (Homo sapiens) was 2.7 nM; in test [3] (Homo sapiens, 72 h), 3.3 nM; in test [4] (Homo sapiens), 3 nM; in test [5] (Homo sapiens, KB-V1), 2010 nM.

Regarding `CC[C@]1(O)C[C@H]2CN(CCc3c([nH]c4ccccc34)[C@@](C(=O)OC)(c3cc4c(cc3OC)N(C=O)[C@H]3[C@@](O)(C(=O)OC)[C@H](OC(C)=O)[C@]5(CC)C=CCN6CC[C@]43[C@@H]65)C2)C1` [Vincristine, reference compound], the IC50 in test [1] (Homo sapiens) was 7.9 nM; in test [2] (Homo sapiens), 58 nM; in test [3] (Homo sapiens, 72 h) it was 2.6 nM; in test [4] (Homo sapiens), 2.5 nM; in test [5] (Homo sapiens, KB-V1) it was 2040 nM. Besides, in test [1], the Ratio was 0.6. In test [2], the “Ratio 8.5/KB” value is 26. Also, the “Ratio VI/KB” value in test [5] came out at 925.

The record behind these values is patent publication US7524849B2, “5-arylpyrimidines as anticancer agents” (Wyeth Holdings Corporation, priority 2003, dated 2009).
